Laboratory results taken from patent US9261498B2, “Biomarker for sensitivity to mTOR inhibitor therapy in kidney cancer” (The Regents of the University of California, priority 2005, dated 2016).
Entries after “also recorded” stand apart in the source; their conditions may differ.

System: SN12C-VHLshRNA-HIF-1α mutant and SN12C-VHLshRNA-HIF-2α mutant cells
Assay: In vitro growth of VHL knockdown cells expressing prolyl hydroxylation defective HIF mutants
Type: cell-based, human
Conditions: 1 or 10 nM CCI-779, 5 days
Description: FIGS. 4A-4C. Rescue of CCI-779 growth suppression by HIF-1-α and HIF-2-α prolyl hydcroxylase mutants. SN12C-CSCG-VHLshRNA cells stably infected with the prolyl hydroxylation defective cDNA mutants p-Babe-puro-HA-HIF-1α (P564A), HIF-2α (P405A; P531A) or backbone vector were treated with CCI-779 or vehicle and harvested 24 hours later. (a) Lysates were subjected to immunoblotting for HIF-1α, HIF-2α, GLUT-1, CA-IX, p-eIF4G, p-S6 and β-Actin as loading control. (b) SN12C-VHLshRNA, SN12C-VHLshRNA-HIF-1α mutant, SN12C-VHLshRNA-HIF-2α mutant cells (1×10^5) were cultured in 10% serum rich media, in the presence of vehicle, 1 or 10 nM of CCI-779 for 5 days. Cell growth was measured by cell counts (n=3). […]
For in vitro experiments, cells (5×10^4) were plated and treated with 1 and 10 nM CCI-779 (kind gift of J. Gibbons, Wyeth) or vehicle (ethanol). On day 5-post treatment, cells were trypsinized, resuspended in DMEM with 10% FBS and counted using the VI CELL counter (Beckman Coulter), according to the manufacturer's instructions. […] In vivo tumorigenicity was measured by injection of 5×10^5 SN12C-CSCG, ACHN-CSCG, SN12C-CSCG-VHLshRNAi, ACHN-CSCG-VHLshRNAi, SN12C-CSCG-VHLshRNAi-pBABE, SN12C-CSCG-VHLshRNAi-pBABE-HA-HIF-2α (P405A; P531A) cells in 100 μl of Matrigel (Collaborative Biomedical) subcutaneously into the flanks of SCID mice. […]

SMILES: CO[C@H]1C[C@@H]2CC[C@@H](C)[C@@](O)(O2)C(=O)C(=O)N2CCCC[C@H]2C(=O)O[C@H]([C@H](C)C[C@@H]2CC[C@@H](OC(=O)C(C)(CO)CO)[C@H](OC)C2)CC(=O)[C@H](C)/C=C(\C)[C@@H](O)[C@@H](OC)C(=O)[C@H](C)C[C@H](C)/C=C/C=C/C=C/1C [CCI-779]
- growth inhibitory effect of CCI-779 in cells expressing HIF mutants, in vitro: completely rescued; also recorded: reversal of both the in vitro and in vivo sensitivity
